Experimental data: patent US12642786B2, “Methods, compositions and kits for treating multiple sclerosis and other disorders” (The Johns Hopkins University, priority 2018, dated 2026)

How the values were obtained:
LPS-stimulated BMDCs = experiment: BMDC cytokine secretion by ELISA; assay type: cell-based, C57BL/6J mice
Protocol: BMDCs were generated as described in Lutz, “An advanced culture method for generating large quantities of highly pure dendritic cells from mouse bone marrow,” 1999, J. Immunol. Methods 223:77-92, with minor modifications. Briefly, femurs were removed from 6-10-wk-old female C57BL/6J mice, cut on both ends, and marrow flushed with PBS. Bone marrow cells were then pelleted by centrifugation (500×g for 8 min), resuspended in red blood cell lysis buffer (Sigma) for 1 min, and quenched with excess PBS. After another centrifugation, cells were resuspended in complete RPMI (cRPMI) media consisting of RPMI-1640 with GlutaMAX™ supplement (Thermo Fisher Scientific) supplemented with 10% FBS, penicillin-streptomycin (Gibco), and 50 μM 2-mercaptoethanol (Sigma). On day 0, ˜2×10^6 cells were then seeded per 100-mm plate in 10 mL media containing 20 ng/mL rmGM-CSF (Peprotech). On day 3, an additional 10 mL fresh cRPMI media containing 20 ng/mL rmGM-CSF was added to each plate. On day 6, half the culture supernatant from each plate was removed and centrifuged, and the pelleted cells resuspended in 10 mL fresh cRPMI with 20 ng/mL rmGM-CSF and added back to the plates. On day 8, all nonadherent cells (representing the BMDC fraction) were collected, pelleted by centrifugation, resuspended in fresh cRPMI media with 20 ng/mL rmGM-CSF, and plated into 24-well dishes. These BMDCs were then treated overnight with or without LPS 100 ng/mL plus the indicated doses of bryo-1. The following day (day 9), these cells were then assayed by flow cytometry or cytokine ELISA.
After overnight treatment of BMDCs or mPMs with LPS 100 ng/mL±bryo-1, culture supernatants were collected and cytokine production was assayed using ELISA kits for IL-12 p70 (catalog #88-7121-22), IL-6 (catalog #88-7064-22), and IL-10 (catalog #88-7105-22) purchased from eBioscience, according to manufacturer's instructions. Plates were read at 450 nm on a tabletop plate reader.

naive CD4+ lymphocytes = experiment: Naive CD4+ T cells stimulated with α-CD3/CD28 antibodies, flow cytometry; assay type: cell-based, C57BL/6J mice
Protocol: (§1) For surface marker and intracellular cytokine staining of T cells, the cells were first restimulated with a cell stimulation mixture with protein transport inhibitors (eBioscience, catalog #00-4975-03) for 4 h in cRPMI at 37° C. They then underwent live/dead and surface marker staining as earlier. For intracellular cytokine staining, cells were permeabilized and fixed using either IC Fixation buffer for cytokine analysis (eBioscience, 00-8222-49) or FoxP3 fixation/permeabilization buffer for transcription factor analysis (eBioscience, 00-5521-00) after manufacturer recommended protocol and incubated with specific conjugated antibodies for the specified proteins in permeabilization buffer for 1 h.
Spleens were harvested from 6-10-wk-old female C57BL/6J mice, and single-cell suspensions were generated in FACS buffer by disrupting spleens with the plunger of a syringe over a 70-μm nylon cell strainer (BD Falcon), pelleting cells by centrifugation (500×g for 8 min), and resuspending in fresh FACS buffer. Naive CD4^+ cells were then isolated by negative selection using an isolation kit from STEMCELL Technologies (catalog #19765).
Tissue culture plates were coated with α-CD3 antibody (BD Biosciences) by incubating them with 0.25-1.0 m/mL of antibody diluted in sterile PBS overnight at 4° C. or for 2-4 h at 37° C. The antibody solution was then removed, plates were washed once with sterile PBS, and naive CD4^+ T cells were seeded along with 0.25-1.0 m/mL α-CD28 antibody (BD Biosciences) in the presence or absence of the indicated doses of bryo-1. The cells were cultured for 3 d and then analyzed by flow cytometry.

[1] = tested on: CD4+, Th1 and Th17 lymphocytes in EAE mice; experiment: Flow cytometry of lymph node, spleen, brain and spinal cord in EAE mice, prevention paradigm; assay type: in vivo, C57BL/6J mice
Protocol: Mice were killed with pentobarbital and perfused via cardiac puncture with ice-cold HBSS without cations. Brain, spinal cord (collected using hydrostatic pressure), spleen, and lymph node tissue were isolated after perfusion and were mechanically dissociated by passing through 100-μm cell strainers. For CNS tissue, after dissociation, infiltrating mononuclear cells were separated from myelin debris using a 37/70% percoll gradient. After dissociation, spleens were incubated in ACK lysis buffer to remove red blood cell contamination. Cells were counted using a MACSQuant flow cytometer (Miltenyi Biotec).
as §1
Cells were analyzed by flow cytometry using a MACSQuant flow cytometer (Miltenyi Biotec). Flow data analysis was performed in FlowJo (FlowJo) or FlowLogic (Inivai).
EAE was elicited by immunizing 8-12-wk-old C57BL/6J mice with MOG35-55. Neurologic symptoms of EAE were most evident 10-14 d after MOG immunization, peaking at about 16 d and then plateauing with slight diminution until 21 d. Mice were treated with bryo-1 (30 μg/kg) or vehicle by i.p. injection 3 d per week.

[2] = 200 nM, cells stimulated with 0.25 μg/mL of α-CD3 and α-CD28 antibodies, 3 d
[3] = brain and spinal cord, peak disease (day 14)
[4] = lymph nodes, 8 d after immunization, prevention paradigm
[5] = lymph nodes, day 8, prevention paradigm
[6] = peak disease (day 14), prophylactic treatment
[7] = spleen, day 8, prevention paradigm

CCC/C=C/C=C/C(=O)OC1/C(=C/C(=O)OC)CC2CC(C(C)O)OC(=O)CC(O)CC3CC(OC(C)=O)C(C)(C)C(O)(CC4C/C(=C/C(=O)OC)CC(/C=C/C(C)(C)C1(O)O2)O4)O3 (stereo not shown) [bryo-1, Bryostatin-1]
LPS-induced secretion of IL-12 (LPS-stimulated BMDCs; BMDCs, LPS 100 ng/mL, bryo-1 10 nM, overnight): abrogated
secretion of IL-10 (LPS-stimulated BMDCs; BMDCs, LPS 100 ng/mL, overnight): significantly augmented
concentration with direct anti-inflammatory effects on DCs and macrophages (as low as) (LPS-stimulated BMDCs; DCs and macrophages): 10 nM
expression of regulatory T-cell marker FoxP3 (naive CD4+ lymphocytes; [2]): increased expression
up-regulation of CD44 (naive CD4+ lymphocytes; [2]): inhibited up-regulation
up-regulation of IFNγ (naive CD4+ lymphocytes; [2]): inhibited up-regulation
effects on CD44, IFNγ and FoxP3 with stronger T-cell stimulation (naive CD4+ lymphocytes; of α-CD3/CD28): these effects were lost
percentage of infiltrating CD4+ lymphocytes expressing IL17 [1, 3]: unchanged
proportion of infiltrating CD4+ lymphocytes producing IFNγ [1, 3]: decreased proportion
numbers of Th1 (CD4+; IFNγ+) lymphocytes in lymph nodes [1, 4]: significantly decreased numbers
numbers of Th17 (CD4+; IL17+) lymphocytes in lymph nodes [1, 4]: significantly decreased numbers
numbers of total CD4+ (CD3+; CD4+) lymphocytes in lymph nodes [1, 4]: significantly decreased numbers
proportion of Th1 cells among CD4+ lymphocytes [1, 5]: significantly lower proportion
proportion of Th17 cells among CD4+ lymphocytes [1, 5]: insignificant decrease
infiltration of CD4+ lymphocytes into the brain [1, 6]: diminished infiltration
infiltration of CD4+ lymphocytes into the spinal cord [1, 6]: diminished infiltration
numbers of Th1 lymphocytes in spleen [1, 7]: significantly decreased numbers
numbers of Th17 cells in spleen [1, 7]: trend toward decreased
numbers of total CD4+ lymphocytes in spleen [1, 7]: significantly decreased numbers
